Data as given in paper PMC5589576, “Targeting the apoptotic Mcl-1-PUMA interface with a dual-acting compound” (Oncotarget, 2017).

What was measured:
[1] = tested on: A2780 cells; experiment: MTT test on suppressing cancer cells, A2780; format: cell-based; conditions: Homo sapiens, 24h
Description: (§1) (Nunc). To check the interference effects of candidate membranes. […]
(§2) Microplate Spectrophotometer with excitation wavelength (Boster). being 432 nm. The IC50 calculations were performed by Graphpad Prism 5 (Graphpad software, Inc.). Key residues discovery
(§3) Tests of candidate compounds on suppressing In the present study, key residues involved in the […]
(§4) by using site-directed mutagenesis and FPA competition
(§5) Cell lines including A2780, MCF-7 and SMMC- assays in combination. According to the results of pairwise 7721 were cultured to the logarithmic growth phase per-residue free energy decomposition, the residues in 3 ml complete media (RPMI1640 plus 10%FBS), contributing a lot to the binding of PUMA/Comp8 to 4 Mcl-1 were subjected to site-directed mutagenesis. By respectively. After adjusting their concentrations to 5×10 reference to the primers listed in Supplementary Table5, cells/ml with complete media, these cell lines were plated overlapping extension PCR was conducted to realize into 96-well, transparent, flat-bottom plates (150 μl/well), site-directed mutagenesis. After verified by gene each point was prepared in three replicates. The density sequencing, the individually mutated PCR products were of cultured cell lines was evaluated by MTT tests. When cloned into the expressing vector pET-43.1a (+). […]

[2] = tested on: MCF-7 cells; experiment: MTT test on suppressing cancer cells, MCF-7; format: cell-based; conditions: Homo sapiens, MCF7, 24h
Description: as §1, §2, §3, §4, §5

[3] = tested on: SMMC-7721 cells; experiment: MTT test on suppressing cancer cells, SMMC-7721; format: cell-based; conditions: Homo sapiens, 24h
Description: as §1, §2, §3, §4, §5

[4] = tested on: A2780, MCF-7 and SMMC-7721; experiment: MTT test, three cancer cell lines together; format: cell-based; conditions: on A2780, MCF-7 and SMMC-7721, range over the three lines
Description: as §1, §2, §3, §4, §5

[5] = tested on: DLD-1 cells infected with Ad-PUMA; experiment: PUMA-dependent apoptosis of DLD-1 cells infected with Ad-PUMA (Caspase-Glo 3/7); format: cell-based; conditions: Homo sapiens, DLD-1, Ad-PUMA, 48h
Description: (§6) Tests of candidate compounds on blocking Synthesis of compound 8
(§7) PUMA-dependent apoptosis To a suspension of rhodanine (7.57 mmol) in dry Construction and validation of recombinant ethanol (10 mL), 4-Biphentlaldehyde (11.3 mmol), N-(2-Adenovirus By taking pHBAd-MCMV-GFP (Hanbio) as hydroxyethyl) piperazine (11.3 mmol), and glacial acetic vector, the construction and purification of Adenoviruses acid (0.75 mmol) were added and the resulting mixture overexpressing PUMA and PUMA-∆BH3 (PUMA was further stirred under reflux for 5-6 h. The reaction was without the BH3 domain) were performed according to completed and then cooled in an ice bath. The precipitated former reports. […]
(§8) various multiplicity of infection (MOI, 6 points, from 0 The crystal structure of Comp8 was solved by X-ray to 160) in 96-well, white, flat-bottom plates (Nunc). […] Shake gently and record the luminescence of each well on TECAN Infinite M1000 S.Y.Z., H.C., J.N.L and J.Y.L. conceived the project.
(§9) Microplate Spectrophotometer. The data were analyzed J.Y.L. and Z.T. designed the experiment. J.Y.L., Z.T., by Graphpad Prism and suitable MOI of Ad-PUMA for N.Z., X.Y.L. and C.Y.L. performed the experiments and following cell infection can be determined in this process. prepared the manuscript. […]
(§10) added to make the final compound concentrations range 2. […] The results were detected by flexible docking. […]

[6] = target: T1, Mcl-1WT (Homo sapiens, UniProt Q07820); experiment: FPA competition assay, wildtype Mcl-1; format: binding; conditions: FITC-Mcl-BH3 probe
T1 construct: implied by Ni2+-NTA purification from pET-43.1a(+)); made in house; host or cells: E. coli BL21
T1 sequence (Q07820 172-327): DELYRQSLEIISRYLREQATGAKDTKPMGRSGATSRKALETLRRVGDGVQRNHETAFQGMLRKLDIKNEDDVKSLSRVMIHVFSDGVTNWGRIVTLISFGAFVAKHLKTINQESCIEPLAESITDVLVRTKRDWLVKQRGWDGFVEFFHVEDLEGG

[7] = target: T2, Mcl-1H205A (Homo sapiens, UniProt Q07820, H224A); experiment: FPA competition assay, mutant Mcl-1 H205A; format: binding
T2 construct: implied by Ni2+-NTA purification from pET-43.1a(+)); made in house; host or cells: E. coli BL21
T2 sequence (Q07820 172-327 H224A): as the sequence (Q07820 172-327) above, with H53A counted along it
Description: (§11) 1 protein was induced by 0.6 mM IPTG for 20 h in the Flow cytometry condition of 20°C, 160 rpm. The strains were harvested by centrifugation (6000 rpm, 10 min, 4°C) and broken Tested cells (A2780, MCF-7 and SMMC-7721) by ultrasonication (10 s operation and 10 s stop, 5 min). were plated in 6-well plates (1×10^5 cells/well) and treated […]
(§12) All cells were detached by trypsin and washed manufacturer ’s instructions. The purified Mcl-1 was (three times) by precooled PBS. The resuspended cells analyzed by 15% SDS-PAGE and dialyzed against 10 mM were stained by Annexin V-FITC and PI in sequence PBS (pH 7.4) before being stored under −80°C for later use. before being detected by flow cytometry.
(§13) FPA competition assays The FITC labelled
(§14) BH3 peptide of Mcl-1 (FITC-Mcl-BH3, FITC-AHx-Western blot analysis […]
(§15) and used as fluorescence probe in the FPA competition A2780, MCF-7 and SMMC-7721 cells treated with assays. All assays were performed in the assay and without Comp8 were harvested, washed by precooled

[8] = target: T3, Mcl-1D237A (Homo sapiens, UniProt Q07820, D256A); experiment: FPA competition assay, mutant Mcl-1 D237A; format: binding
T3 construct: implied by Ni2+-NTA purification from pET-43.1a(+)); made in house; host or cells: E. coli BL21
T3 sequence (Q07820 172-327 D256A): as the sequence (Q07820 172-327) above, with D85A counted along it
Description: as §11, §12, §13, §14, §15

[9] = target: T4, Mcl-1N241A (Homo sapiens, UniProt Q07820, N260A); experiment: FPA competition assay, mutant Mcl-1 N241A; format: binding
T4 construct: implied by Ni2+-NTA purification from pET-43.1a(+)); made in house; host or cells: E. coli BL21
T4 sequence (Q07820 172-327 N260A): as the sequence (Q07820 172-327) above, with N89A counted along it
Description: as §11, §12, §13, §14, §15

[10] = target: T5, Mcl-1R244A (Homo sapiens, UniProt Q07820, R263A); experiment: FPA competition assay, mutant Mcl-1 R244A; format: binding
T5 construct: implied by Ni2+-NTA purification from pET-43.1a(+)); made in house; host or cells: E. coli BL21
T5 sequence (Q07820 172-327 R263A): as the sequence (Q07820 172-327) above, with R92A counted along it
Description: as §11, §12, §13, §14, §15

[11] = target: T6, Mcl-1F251A (Homo sapiens, UniProt Q07820, F270A); experiment: FPA competition assay, mutant Mcl-1 F251A; format: binding
T6 construct: implied by Ni2+-NTA purification from pET-43.1a(+)); made in house; host or cells: E. coli BL21
T6 sequence (Q07820 172-327 F270A): as the sequence (Q07820 172-327) above, with F99A counted along it
Description: as §11, §12, §13, §14, §15

[12] = tested on: A2780, MCF-7 and SMMC-7721; experiment: Flow cytometry detection of apoptosis (Annexin V-FITC/PI); format: cell-based; conditions: 48h; 47.42 μM for A2780 and MCF-7, 27.80 μM for SMMC-7721
Description: After cleared by centrifugation (12000 rpm, 30 min) and with/without the given concentration of Comp8 for 48h filtration (0.44 μm filter membrane), the lysate was purified (47.42 μM for A2780 and MCF-7, 27.80 μM for SMMC-by Ni2+-NTA sepharose gel column (7Sea) following the 7721). All cells were detached by trypsin and washed manufacturer ’s instructions. The purified Mcl-1 was (three times) by precooled PBS. The resuspended cells analyzed by 15% SDS-PAGE and dialyzed against 10 mM were stained by Annexin V-FITC and PI in sequence PBS (pH 7.4) before being stored under −80°C for later use. before being detected by flow cytometry. […]
as §1, §2, §3, §4
Cell lines including A2780, MCF-7 and SMMC- assays in combination. According to the results of pairwise 7721 were cultured to the logarithmic growth phase per-residue free energy decomposition, the residues in 3 ml complete media (RPMI1640 plus 10%FBS), contributing a lot to the binding of PUMA/Comp8 to 4 Mcl-1 were subjected to site-directed mutagenesis. […]

[13] = tested on: Caspase-3, Cyto-c and Bcl-2 in A2780, MCF-7 and SMMC-7721 cells; experiment: Western blot analysis of apoptotic marker proteins; format: cell-based
Description: as §14
-NH2) was synthesized […]
and used as fluorescence probe in the FPA competition A2780, MCF-7 and SMMC-7721 cells treated with assays. All assays were performed in the assay and without Comp8 were harvested, washed by precooled buffer (pH 7.4) composed of 20 mM Tris, 50 mM NaCl, PBS and split by RIPA lysis buffer (Thermo) containing 3 mM DTT and 2% DMSO. The FPA competition assays PMSF (protease inhibitor). Quantified protein samples were carried out in the 96-well, black, flat-bottom plates were separated by SDS-PAGE and then transferred to NC (Nunc). To check the interference effects of candidate membranes. After being blocked for 1h, all membranes compounds on the interaction between Mcl-1 and FITC- were incubated with primary antibodies against protein Mcl-BH3, solutions containing 250 nM Mcl-1 and 250 nM Caspase (1:500, Abcam), Cyto-c (1:500, Abcam) and fluorescence probes were titrated with 250 μM selected Bcl-2 (1:500, Abcam) at 4℃ overnight. […] The emission fluorescence changes were antibodies (1:10000, Jackson) for 1 h at 37°C, the signals recorded from 480 to 540 nm by TECAN Infinite M1000 were detected with ECL western blot detection system Microplate Spectrophotometer with excitation wavelength (Boster). being 432 nm. […]

[14] = tested on: HUVECs infected with Ad-PUMA; experiment: PUMA-induced apoptosis of HUVECs infected with Ad-PUMA (Caspase-Glo 3/7); format: cell-based; conditions: low-dose, less than 12.5 μM, 48h
Description: as §6, §7, §8, §9, §10

[15] = target: Mcl-1; conditions: known Mcl-1 inhibitor; cited from earlier work

| Structure (SMILES) | IC50 [1] | IC50 [2] | IC50 [3] | IC50 [4] | EC50 ([5]; read-out: EC50 (action on apoptosis)) | Ki [6] | Ki [7] | Ki [8] | Ki [9] | Ki [10] | Ki [11] | apoptotic cells (FCM) [12] | changes of three apoptosis indicators (WB) [13] | IC50 ([5]; read-out: IC50 (inhibition of PUMA-dependent apoptosis)) | effect on PUMA-induced apoptosis of HUVECs [14] | Ki [15] |
| --- | --- | --- | --- | --- | --- | --- | --- | --- | --- | --- | --- | --- | --- | --- | --- | --- |
| CC1(C)CCC(c2ccc(Cl)cc2)=C(CN2CCN(c3ccc(C(=O)NS(=O)(=O)c4ccc(N[C@H](CCN5CCOCC5)CSc5ccccc5)c(S(=O)(=O)C(F)(F)F)c4)cc3)CC2)C1 [ABT-263, reference compound] | 21.8 ± 1.85 µM | 32 ± 3.48 µM | 29.5 ± 1.36 µM | 20 to 50 µM | 2.75 ± 0.24 µM | – | – | – | – | – | – | – | – | – | – | – |
| O=C1N=C(N2CCN(CCO)CC2)S/C1=C\c1ccc(-c2ccccc2)cc1 [Comp8] | 47.6 ± 2.99 µM | 44.2 ± 2.3 µM | 44.2 ± 2.22 µM | 20 to 50 µM | – | 0.3 ± 0.04 µM | 1.24 ± 0.35 µM | 1.98 ± 0.31 µM | 1.95 ± 0.45 µM | 3.52 ± 0.59 µM | 0.66 ± 0.13 µM | substantial increase of apoptotic cells | fitted well with the characteristics of apoptosis | 38.9 ± 0.91 µM | inhibitory effect | – |
| O=C(O)CSc1cc(NS(=O)(=O)c2ccc(Br)cc2)c2ccccc2c1O [UMI-77] | – | – | – | – | – | – | – | – | – | – | – | – | – | – | – | 0.49 µM |
